Measured values: article PMC8632988, “Inhibition of SYK and cSrc kinases can protect bone and cartilage in preclinical models of osteoarthritis and rheumatoid arthritis” (Scientific Reports, 2021)
“And” between values parts separate entries of the source, which are not always exact repeats. Equal values may be shown once.

How the values were obtained:
[1] = tested on: B cells in human whole blood; experiment: B-cell activation in human whole blood; type: cell-based; details: anti-IgD stimulation, 16 h, read-out: IC50, BCR-dependent (anti-IgD) activation of B cells
Protocol: The whole blood assay was performed at N. N. Blokhin National Medical Research Center of Oncology (NMRCO), Russia and approved by NMRCO ethics committee. Informed consent was obtained from all subjects. Red blood cells were lysed by incubation with NH4Cl buffer (0.8% NH4Cl and 0.1% EDTA in distilled water) for 5 min at 37 °C and were precipitated by centrifugation (1500 rpm). The precipitates were resuspended in RPMI-1640 with 10% human serum and 2 mM L-glutamine, after that the cells were again precipitated by analogous centrifugation and resuspended in RPMI-1640. […] Blood was then stained directly with PE-conjugated anti-CD69 (dilution 1:10) and APC-conjugated anti-CD19 (dilution 1:20) antibodies for 20 min at 4 °C. After that cells were precipitated by centrifugation (1500 rpm, 4 °C) and washed twice with phosphate-buffered saline (PBS). The cells were resuspended in PBS containing 1% BSA and subjected to flow cytometry on BD FACS Canto II (BD Biosciences, USA). The number of active cells was estimated as a ratio of CD69-positive cells bearing a marker of CD19 cells, or as a mean fluorescence intensity (MFI) of CD69 + cells after gating on the CD19-positive cells. For dose–response curve see Fig. S2.

PAK2 = molecular target: T1, PAK2 (Homo sapiens, UniProt Q13177); experiment: Kinase selectivity profile assay; type: biochemical; details: 500 nM; relative to DMSO; read-out: Residual enzymatic activity
T1 construct: purchased Reaction Biology Corporation
Description: (§1) Kinase activity data was expressed as the percent remaining kinase activity in test samples compared to vehicle (dimethyl sulfoxide) reactions based on the radioactivity of reaction products (see Table S2). Experiment was replicated twice.

TSSK3/STK22C = molecular target: T2, TSSK3/STK22C (Homo sapiens, UniProt Q96PN8); experiment: Kinase selectivity profile assay; type: biochemical; details: 500 nM; relative to DMSO; read-out: Residual enzymatic activity
T2 construct: purchased Reaction Biology Corporation
Description: as §1

PAK3 = molecular target: T3, PAK3 (Homo sapiens, UniProt O75914); experiment: Kinase selectivity profile assay; type: biochemical; details: 500 nM; relative to DMSO; read-out: Residual enzymatic activity
T3 construct: purchased Reaction Biology Corporation
Description: as §1

JNK2 = molecular target: T4, JNK2 (Homo sapiens, UniProt P45984); experiment: Kinase selectivity profile assay; type: biochemical; details: 500 nM; relative to DMSO; read-out: Residual enzymatic activity
T4 construct: purchased Reaction Biology Corporation
Description: as §1

FES/FPS = molecular target: T5, FES/FPS (Homo sapiens, UniProt P07332); experiment: Kinase selectivity profile assay; type: biochemical; details: 500 nM; relative to DMSO; read-out: Residual enzymatic activity
T5 construct: purchased Reaction Biology Corporation
Description: as §1

JNK1 = molecular target: T6, JNK1 (Homo sapiens, UniProt P45983); experiment: Kinase selectivity profile assay; type: biochemical; details: 500 nM; relative to DMSO; read-out: Residual enzymatic activity
T6 construct: purchased Reaction Biology Corporation
Description: as §1

CAMK1d = molecular target: T7, CAMK1d (Homo sapiens, UniProt Q8IU85); experiment: Kinase selectivity profile assay; type: biochemical; details: 500 nM; relative to DMSO; read-out: Residual enzymatic activity
T7 construct: purchased Reaction Biology Corporation
Description: as §1

TLK2 = molecular target: T8, TLK2 (Homo sapiens, UniProt Q86UE8); experiment: Kinase selectivity profile assay; type: biochemical; details: 500 nM; relative to DMSO; read-out: Residual enzymatic activity
T8 construct: purchased Reaction Biology Corporation
Description: as §1

FGFR2 = molecular target: T9, FGFR2 (Homo sapiens, UniProt P21802); experiment: Kinase selectivity profile assay; type: biochemical; details: 500 nM, relative to DMSO
T9 construct: purchased Reaction Biology Corporation
Description: as §1

PAK1 = molecular target: T10, PAK1 (Homo sapiens, UniProt Q13153); experiment: Kinase selectivity profile assay; type: biochemical; details: 500 nM; relative to DMSO; read-out: Residual enzymatic activity
T10 construct: purchased Reaction Biology Corporation
Description: as §1

CDK9/cyclin K = molecular target: T11, CDK9/cyclin K (Homo sapiens, UniProt P50750); experiment: Kinase selectivity profile assay; type: biochemical; details: 500 nM; relative to DMSO; read-out: Residual enzymatic activity
T11 construct: purchased Reaction Biology Corporation
Description: as §1

LCK = molecular target: T12, LCK (Homo sapiens, UniProt P06239); experiment: Kinase selectivity profile assay; type: biochemical
T12 construct: purchased Reaction Biology Corporation (assay service)
Description: as §1

RET = molecular target: T13, RET (Homo sapiens, UniProt P07949); experiment: Kinase selectivity profile assay; type: biochemical
T13 construct: purchased Reaction Biology Corporation (Malvern, PA, USA)
Description: as §1

JAK2 = molecular target: T14, JAK2 (Homo sapiens, UniProt O60674); experiment: Kinase selectivity profile assay; type: biochemical
T14 construct: purchased Reaction Biology Corporation (assay service)
Description: as §1

SYK [2] = molecular target: T15, SYK (Homo sapiens, UniProt P43405); experiment: Kinase selectivity profile assay; type: biochemical; parameters: purchased Reaction Biology Corporation; details: 500 nM; relative to DMSO; read-out: Residual enzymatic activity
Description: as §1

SYK [3] = molecular target: T15, SYK; experiment: SYK inhibition radiometric assay; type: biochemical; parameters: 6xHis; GST; purchased EMD Millipore Corporation (UK), assay service; host or cells: Sf21
Protocol: Radiometric assay was performed at EMD Millipore Corporation (UK) by measuring the extent of substrate phosphorylation by 6xHis-SYK (expressed in Sf21 cells) using the standard protocol.

rat primary chondrocytes = experiment: Hypertrophic-like changes in IL-1β treated primary chondrocytes; type: cell-based; details: for Relative fold expression, aggrecan / Relative fold expression, type II collagen: control = 1
Protocol: The experiment was performed at Atlantic Bone Screen, France. To isolate primary chondrocytes, Sprague Dawley 3 weeks old rats were euthanized and their hind limbs were collected. Knee cartilage shavings were digested with collagenase in serum-free Dulbecco’s Modified Eagle’s Medium (DMEM). Once digested, the cell suspension was centrifuged and resuspended in DMEM containing 10% fetal bovine serum (FBS). Then the cells were plated on tissue culture plastic at a density of 10 000 cells∙cm^−2 and were amplified in monolayer in culture medium (DMEM/FCS-10% supplemented with HEPES (25 mM)) until passage 1 and frozen at − 80 °C. Before study rat’s chondrocytes were seeded and cultured in monolayers in 12-well plates for 24 h. After that the cells were treated for three days with IL-1β (10 ng/mL) and MT-SYK-03; […] and vehicle (DMSO, 0.3% in cell medium) controls were also carried out in triplicate. At the end of the treatment, chondrocytes were lysed, and total RNA was purified using the NucleoSpin RNA II kit (Macherey Nagel). Total RNAs (2 μg) were retro-transcribed using M-MLV RT (Lifetechnologies) and obtained cDNAs (10 ng) were used for qPCR to determine steady-state levels of type II collagen and aggrecan mRNAs (levels of RPL19 and β-actin mRNAs were used as controls). Each reaction was set up as follows: 5 μL of iQ SYBR Green Supermix (Biorad, ref 1,708,882), 0.6 μL of forward primer (5 μM), and 0.6 μL of reverse primer (5 μM), 1.8 μL H2O, and 2 μL of cDNA. All qPCRs (72 qPCRs per marker) were run on a DNA Engine Thermal Cycler Chromo 4 in triplicates and analyzed using REST software.

[4] = 500 nM, relative to DMSO, read-out: Residual enzymatic activity
[5] = 10-dose mode, threefold serial dilution from 10 μM

T12 sequence (P06239 whole entry): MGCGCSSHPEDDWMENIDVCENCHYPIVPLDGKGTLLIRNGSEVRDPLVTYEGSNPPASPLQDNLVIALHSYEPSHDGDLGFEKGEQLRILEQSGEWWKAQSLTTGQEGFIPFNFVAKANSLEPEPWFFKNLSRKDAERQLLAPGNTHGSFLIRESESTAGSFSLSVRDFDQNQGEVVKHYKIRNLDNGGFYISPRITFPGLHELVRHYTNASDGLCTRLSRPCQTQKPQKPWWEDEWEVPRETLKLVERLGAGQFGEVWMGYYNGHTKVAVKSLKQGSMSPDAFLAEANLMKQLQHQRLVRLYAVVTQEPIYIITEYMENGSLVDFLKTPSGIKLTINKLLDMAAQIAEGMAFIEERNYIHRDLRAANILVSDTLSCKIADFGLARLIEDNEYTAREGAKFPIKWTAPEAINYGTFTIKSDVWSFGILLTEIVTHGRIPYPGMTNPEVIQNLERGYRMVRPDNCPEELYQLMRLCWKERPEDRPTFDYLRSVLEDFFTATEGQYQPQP
T9 sequence (P21802 22-821): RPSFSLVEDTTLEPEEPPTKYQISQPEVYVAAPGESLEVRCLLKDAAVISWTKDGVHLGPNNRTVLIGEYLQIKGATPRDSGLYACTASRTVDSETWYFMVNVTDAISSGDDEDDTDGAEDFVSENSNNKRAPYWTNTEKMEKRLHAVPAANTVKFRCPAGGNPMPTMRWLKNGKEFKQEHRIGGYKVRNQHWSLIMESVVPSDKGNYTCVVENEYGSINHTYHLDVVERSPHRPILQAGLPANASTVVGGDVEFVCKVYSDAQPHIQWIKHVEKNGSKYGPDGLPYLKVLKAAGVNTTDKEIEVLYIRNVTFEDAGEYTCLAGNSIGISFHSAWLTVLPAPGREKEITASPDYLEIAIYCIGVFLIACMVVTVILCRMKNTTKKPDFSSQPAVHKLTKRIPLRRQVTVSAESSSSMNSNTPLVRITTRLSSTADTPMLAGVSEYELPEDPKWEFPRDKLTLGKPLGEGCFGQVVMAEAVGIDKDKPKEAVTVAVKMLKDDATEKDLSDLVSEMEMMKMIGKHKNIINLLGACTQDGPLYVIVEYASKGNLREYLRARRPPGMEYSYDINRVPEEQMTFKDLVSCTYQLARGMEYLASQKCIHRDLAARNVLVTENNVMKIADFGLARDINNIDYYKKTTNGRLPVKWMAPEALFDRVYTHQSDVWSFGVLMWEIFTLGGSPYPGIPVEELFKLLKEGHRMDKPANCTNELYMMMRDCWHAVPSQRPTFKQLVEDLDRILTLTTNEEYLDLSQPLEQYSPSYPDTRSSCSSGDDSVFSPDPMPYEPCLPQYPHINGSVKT
T14 sequence (O60674 whole entry): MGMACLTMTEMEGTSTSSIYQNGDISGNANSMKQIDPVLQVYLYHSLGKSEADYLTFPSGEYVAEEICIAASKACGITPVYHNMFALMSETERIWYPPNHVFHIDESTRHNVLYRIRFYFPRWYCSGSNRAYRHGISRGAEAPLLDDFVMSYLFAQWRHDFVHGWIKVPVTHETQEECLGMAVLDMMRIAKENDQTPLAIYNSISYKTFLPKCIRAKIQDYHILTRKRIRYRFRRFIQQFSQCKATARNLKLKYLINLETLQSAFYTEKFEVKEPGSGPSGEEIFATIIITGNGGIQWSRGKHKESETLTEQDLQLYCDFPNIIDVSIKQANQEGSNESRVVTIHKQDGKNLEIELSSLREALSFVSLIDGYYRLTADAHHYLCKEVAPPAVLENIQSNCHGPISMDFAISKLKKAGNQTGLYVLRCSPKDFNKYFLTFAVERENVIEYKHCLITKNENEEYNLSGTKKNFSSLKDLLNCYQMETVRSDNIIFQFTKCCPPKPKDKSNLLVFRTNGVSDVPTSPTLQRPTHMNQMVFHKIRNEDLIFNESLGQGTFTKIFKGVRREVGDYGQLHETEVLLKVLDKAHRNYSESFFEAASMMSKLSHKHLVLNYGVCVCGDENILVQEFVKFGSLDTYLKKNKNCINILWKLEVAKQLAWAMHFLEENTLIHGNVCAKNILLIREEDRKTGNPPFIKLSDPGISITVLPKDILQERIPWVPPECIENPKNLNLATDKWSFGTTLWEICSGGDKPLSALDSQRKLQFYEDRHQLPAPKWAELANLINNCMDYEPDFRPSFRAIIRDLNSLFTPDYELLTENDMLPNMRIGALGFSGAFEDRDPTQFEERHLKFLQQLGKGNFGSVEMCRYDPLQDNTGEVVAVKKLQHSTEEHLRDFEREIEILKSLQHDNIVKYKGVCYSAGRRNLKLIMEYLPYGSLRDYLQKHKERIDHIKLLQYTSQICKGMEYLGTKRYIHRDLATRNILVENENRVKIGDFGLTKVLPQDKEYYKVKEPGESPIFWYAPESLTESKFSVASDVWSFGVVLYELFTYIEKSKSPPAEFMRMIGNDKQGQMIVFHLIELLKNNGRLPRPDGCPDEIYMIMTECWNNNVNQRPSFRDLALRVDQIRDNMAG
T13 sequence (P07949 29-1114): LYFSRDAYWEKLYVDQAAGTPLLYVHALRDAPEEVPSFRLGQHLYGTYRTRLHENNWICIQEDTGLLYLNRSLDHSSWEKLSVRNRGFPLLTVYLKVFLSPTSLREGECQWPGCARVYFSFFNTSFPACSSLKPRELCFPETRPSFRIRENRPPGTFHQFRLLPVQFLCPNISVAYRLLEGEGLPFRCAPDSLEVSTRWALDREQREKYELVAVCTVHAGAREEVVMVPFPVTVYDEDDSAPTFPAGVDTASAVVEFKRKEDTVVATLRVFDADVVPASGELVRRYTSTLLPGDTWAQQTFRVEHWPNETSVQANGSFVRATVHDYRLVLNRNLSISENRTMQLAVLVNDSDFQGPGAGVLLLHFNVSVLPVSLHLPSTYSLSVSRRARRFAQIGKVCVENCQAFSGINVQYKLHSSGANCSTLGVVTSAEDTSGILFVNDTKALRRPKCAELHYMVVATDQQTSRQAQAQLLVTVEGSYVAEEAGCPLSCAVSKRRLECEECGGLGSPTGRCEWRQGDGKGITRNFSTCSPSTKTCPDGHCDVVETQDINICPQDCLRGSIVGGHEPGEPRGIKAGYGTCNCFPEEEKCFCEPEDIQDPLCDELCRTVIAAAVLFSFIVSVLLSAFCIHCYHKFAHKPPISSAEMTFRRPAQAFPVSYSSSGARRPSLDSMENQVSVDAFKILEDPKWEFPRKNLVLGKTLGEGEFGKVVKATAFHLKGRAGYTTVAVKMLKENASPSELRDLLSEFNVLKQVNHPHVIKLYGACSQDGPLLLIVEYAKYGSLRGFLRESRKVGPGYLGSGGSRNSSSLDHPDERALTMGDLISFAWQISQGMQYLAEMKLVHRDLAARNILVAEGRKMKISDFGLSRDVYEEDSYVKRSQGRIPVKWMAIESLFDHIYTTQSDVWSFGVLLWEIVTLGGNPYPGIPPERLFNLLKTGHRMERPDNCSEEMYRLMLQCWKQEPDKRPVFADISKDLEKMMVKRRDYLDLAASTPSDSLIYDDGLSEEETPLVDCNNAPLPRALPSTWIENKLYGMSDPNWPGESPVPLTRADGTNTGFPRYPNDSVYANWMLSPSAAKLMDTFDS
T7 sequence (Q8IU85 whole entry): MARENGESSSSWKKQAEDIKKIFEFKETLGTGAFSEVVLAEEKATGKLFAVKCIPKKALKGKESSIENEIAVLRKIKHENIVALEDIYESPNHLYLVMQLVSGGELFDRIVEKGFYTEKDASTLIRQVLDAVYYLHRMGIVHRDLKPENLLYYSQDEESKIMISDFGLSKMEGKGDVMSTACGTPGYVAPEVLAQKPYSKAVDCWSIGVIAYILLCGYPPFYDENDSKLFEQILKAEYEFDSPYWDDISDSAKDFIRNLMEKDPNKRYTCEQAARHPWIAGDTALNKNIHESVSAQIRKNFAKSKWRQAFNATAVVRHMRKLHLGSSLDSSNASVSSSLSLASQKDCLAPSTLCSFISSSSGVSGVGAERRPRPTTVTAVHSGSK
T5 sequence (P07332 whole entry): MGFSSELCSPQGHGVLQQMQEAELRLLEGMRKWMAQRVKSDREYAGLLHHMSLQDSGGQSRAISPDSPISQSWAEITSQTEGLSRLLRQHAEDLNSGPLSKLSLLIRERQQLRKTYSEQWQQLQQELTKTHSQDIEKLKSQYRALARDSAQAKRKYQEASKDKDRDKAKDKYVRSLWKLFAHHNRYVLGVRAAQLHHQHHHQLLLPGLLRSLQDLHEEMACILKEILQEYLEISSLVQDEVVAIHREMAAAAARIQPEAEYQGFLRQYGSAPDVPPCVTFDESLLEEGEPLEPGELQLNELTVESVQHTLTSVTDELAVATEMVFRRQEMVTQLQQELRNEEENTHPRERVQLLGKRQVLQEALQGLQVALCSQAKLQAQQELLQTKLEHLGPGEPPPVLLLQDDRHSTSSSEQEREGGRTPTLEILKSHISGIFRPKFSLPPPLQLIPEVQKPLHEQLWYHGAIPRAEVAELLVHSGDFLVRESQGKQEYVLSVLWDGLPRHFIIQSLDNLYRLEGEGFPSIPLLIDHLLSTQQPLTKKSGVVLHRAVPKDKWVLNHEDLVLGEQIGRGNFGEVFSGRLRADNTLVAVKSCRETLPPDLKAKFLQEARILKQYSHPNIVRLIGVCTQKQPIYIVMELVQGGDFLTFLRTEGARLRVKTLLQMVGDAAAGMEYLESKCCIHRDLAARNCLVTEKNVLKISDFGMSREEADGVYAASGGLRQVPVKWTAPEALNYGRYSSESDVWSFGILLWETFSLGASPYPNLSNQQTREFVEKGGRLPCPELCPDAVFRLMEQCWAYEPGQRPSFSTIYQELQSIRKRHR
T2 sequence (Q96PN8 whole entry): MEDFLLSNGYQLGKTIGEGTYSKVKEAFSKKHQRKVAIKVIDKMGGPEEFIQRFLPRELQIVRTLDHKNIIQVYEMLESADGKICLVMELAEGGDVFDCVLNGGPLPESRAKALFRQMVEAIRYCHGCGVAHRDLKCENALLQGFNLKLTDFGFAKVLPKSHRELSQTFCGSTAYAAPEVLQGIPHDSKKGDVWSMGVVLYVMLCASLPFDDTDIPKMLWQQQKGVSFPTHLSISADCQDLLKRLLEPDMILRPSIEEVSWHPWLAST

COc1cc(Nc2ncnc(Nc3cc4c(cn3)NC(=O)C(C)(C)O4)n2)cc(OC)c1OC [MT-SYK-03]
IC50 [1]: 550 nM
remaining activity at 0.5 µM (PAK2): 94.1%
remaining activity at 0.5 µM (TSSK3/STK22C): 99.9%
remaining activity at 0.5 µM (PAK3): 87%
remaining activity at 0.5 µM (JNK2): 92.6%
remaining activity at 0.5 µM (FES/FPS): 92.2%
remaining activity at 0.5 µM (JNK1): 94.3%
remaining activity at 0.5 µM (CAMK1d): 108%
remaining activity at 0.5 µM (TLK2): 95.6%
Residual enzymatic activity (FGFR2): 65.1%
remaining activity at 0.5 µM (FGFR2; read-out: Residual enzymatic activity): > 54%
remaining activity at 0.5 µM (PAK1): 100%
remaining activity at 0.5 µM (CDK9/cyclin K): 95.7%
remaining activity at 0.5 µM (LCK; [4]): 12%
IC50 (LCK; [5]): 20 nM and 20.1 nM
remaining activity at 0.5 µM (RET; [4]): 23%
IC50 (RET; [5]): 13.5 nM
remaining activity at 0.5 µM (JAK2; [4]): 27%
IC50 (JAK2; [5]): 67.2 nM
remaining activity at 0.5 µM (SYK [2]): 57.4%
IC50 (SYK [3]): 40 ± 4 nM
Aggrecan gene expression (rat primary chondrocytes; IL-1β 10 ng/mL, three days): increased
Type II collagen gene expression (rat primary chondrocytes; IL-1β 10 ng/mL, three days): increased
Relative fold expression, aggrecan (rat primary chondrocytes; IL-1β + MT-SYK-03 0.4 μM): 0.20
Relative fold expression, type II collagen (rat primary chondrocytes; IL-1β + MT-SYK-03 0.4 μM): 0.12
Relative fold expression, aggrecan (rat primary chondrocytes; IL-1β + MT-SYK-03 2 μM): 0.42
Relative fold expression, type II collagen (rat primary chondrocytes; IL-1β + MT-SYK-03 2 μM): 0.12
Relative fold expression, aggrecan (rat primary chondrocytes; IL-1β + MT-SYK-03 10 μM): 0.46
Relative fold expression, type II collagen (rat primary chondrocytes; IL-1β + MT-SYK-03 10 μM): 0.09
